According to paper PMC6979384, “Characterization of the plant homeodomain (PHD) reader family for their histone tail interactions” (Epigenetics & Chromatin, 2020):

Assays:
Experiment in all cases: Histone peptide microarray
Type in all cases: binding, human
[1] = tested on: ING5; details: GST-tagged ING5; sheet Array Heatmap; each array performed twice, total n = 4
Summary of the method: (§1)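 Readout is array binding signal, reported as the mean and standard deviation over four replicates. Each purified GST-fused PHD domain was incubated at 0.5 μM with a library of 293 modified histone peptides.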

[2] = tested on: PHF2; details: GST-tagged PHF2; sheet Array Heatmap; each array performed twice, total n = 4
Summary of the method: as §1

[3] = tested on: BAZ2B; details: GST-tagged BAZ2B; sheet Array Heatmap; each array performed twice, total n = 4
Summary of the method: as §1

[4] = tested on: ING4; details: GST-tagged ING4; sheet Array Heatmap; each array performed twice, total n = 4
Summary of the method: as §1

[5] = tested on: MLL5; details: GST-tagged MLL5; sheet Array Heatmap; each array performed twice, total n = 4
Summary of the method: as §1

[6] = tested on: ING1; details: GST-tagged ING1; sheet Array Heatmap; each array performed twice, total n = 4
Summary of the method: as §1

[7] = tested on: PHF21A; details: GST-tagged PHF21A; sheet Array Heatmap; each array performed twice, total n = 4
Summary of the method: as §1

[8] = tested on: PHF8; details: GST-tagged PHF8; sheet Array Heatmap; each array performed twice, total n = 4
Summary of the method: as §1

[9] = tested on: KDM5A (3); details: GST-tagged KDM5A (3); sheet Array Heatmap; each array performed twice, total n = 4
Summary of the method: as §1

[10] = tested on: ING3; details: GST-tagged ING3; sheet Array Heatmap; each array performed twice, total n = 4
Summary of the method: as §1

[11] = tested on: KDM5B (1); details: GST-tagged KDM5B (1); sheet Array Heatmap; each array performed twice, total n = 4
Summary of the method: as §1

[12] = tested on: KDM7A; details: GST-tagged KDM7A; sheet Array Heatmap; each array performed twice, total n = 4
Summary of the method: as §1

[13] = tested on: KDM5B (3); details: GST-tagged KDM5B (3); sheet Array Heatmap; each array performed twice, total n = 4
Summary of the method: as §1

[14] = tested on: BPTF (PB); details: GST-tagged BPTF (PB = PHD + Bromodomain); sheet Array Heatmap; each array performed twice, total n = 4
Summary of the method: as §1

[15] = tested on: MORC3 (CW); details: GST-tagged MORC3 (CW = CW-type Zn-finger); sheet Array Heatmap; each array performed twice, total n = 4
Summary of the method: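 GST-tagged PHD finger readers were expressed, purified and applied at 0.5 μM to a microarray of 293 synthetic histone peptides carrying single or combinatorial PTMs, using an optimized protocol. Binding signals are averages with standard deviation from 4 replicates.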

[16] = tested on: DPF2 (PPC2W2); details: GST-tagged DPF2 (PPC2W2 = Dual PHD + C2W2-type Zn-finger); sheet Array Heatmap; each array performed twice, total n = 4
Summary of the method: as §1

[17] = tested on: AIRE (PP); details: GST-tagged AIRE (PP); sheet Array Heatmap; each array performed twice, total n = 4
Summary of the method: as §1

[18] = tested on: CHD5 (PPCC); details: GST-tagged CHD5 (PPCC = Dual PHD + Dual Chromodomain); sheet Array Heatmap; each array performed twice, total n = 4
Summary of the method: as §1

[19] = tested on: SP140L; details: GST-tagged SP140L; sheet Array Heatmap; each array performed twice, total n = 4
Summary of the method: as §1

[20] = tested on: TAF3; details: GST-tagged TAF3; sheet Array Heatmap; each array performed twice, total n = 4
Summary of the method: as §1

[21] = tested on: PHF23; details: GST-tagged PHF23; sheet Array Heatmap; each array performed twice, total n = 4
Summary of the method: as §1

[22] = tested on: TRIM66 (PB); details: GST-tagged TRIM66 (PB = PHD + Bromodomain); sheet Array Heatmap; each array performed twice, total n = 4
Summary of the method: as §1

[23] = tested on: RAG2; details: GST-tagged RAG2; sheet Array Heatmap; each array performed twice, total n = 4
Summary of the method: as §1

[24] = tested on: CHD5 (PCC); details: GST-tagged CHD5 (PCC = PHD + Dual Chromodomain); sheet Array Heatmap; each array performed twice, total n = 4
Summary of the method: as §1

[25] = tested on: PHF13; details: GST-tagged PHF13; sheet Array Heatmap; each array performed twice, total n = 4
Summary of the method: as §1

[26] = tested on: CHD4 (PPCC); details: GST-tagged CHD4 (PPCC = Dual PHD + Dual Chromodomain); sheet Array Heatmap; each array performed twice, total n = 4
Summary of the method: as §1

[27] = tested on: DIDO1; details: GST-tagged DIDO1; sheet Array Heatmap; each array performed twice, total n = 4
Summary of the method: as §1

[28] = tested on: PHRF1 (RP); details: GST-tagged PHRF1 (RP); sheet Array Heatmap; each array performed twice, total n = 4
Summary of the method: as §1

[29] = tested on: KDM5A (1); details: GST-tagged KDM5A (1); sheet Array Heatmap; each array performed twice, total n = 4
Summary of the method: as §1

[30] = tested on: KDM4C (TTP); details: GST-tagged KDM4C (TTP = Tandem Tudor domain + PHD); sheet Array Heatmap; each array performed twice, total n = 4
Summary of the method: as §1

[31] = tested on: ING2; details: GST-tagged ING2; sheet Array Heatmap; each array performed twice, total n = 4
Summary of the method: as §1

What does the source list for H3K4ac + K14ac: H3 1-20?
Array Heatmap signal (histone peptide microarray) [1]: 0.3447; Array Heatmap signal (histone peptide microarray) [2]: 0.5218; Array Heatmap signal (histone peptide microarray) [3]: 0.8376; Array Heatmap signal (histone peptide microarray) [4]: 0.4509; Array Heatmap signal (histone peptide microarray) [5]: 0.5464; Array Heatmap signal (histone peptide microarray) [6]: 0.5034; Array Heatmap signal (histone peptide microarray) [7]: 0.4619; Array Heatmap signal (histone peptide microarray) [8]: 0.3555; Array Heatmap signal (histone peptide microarray) [9]: 0.4971; Array Heatmap signal (histone peptide microarray) [10]: 0.5142; Array Heatmap signal (histone peptide microarray) [11]: 0.6896; Array Heatmap signal (histone peptide microarray) [12]: 0.4116; Array Heatmap signal (histone peptide microarray) [13]: 0.5625; Array Heatmap signal (histone peptide microarray) [14]: 0.4507; Array Heatmap signal (histone peptide microarray) [15]: 0.433; Array Heatmap signal (histone peptide microarray) [16]: 0.6791; Array Heatmap signal (histone peptide microarray) [17]: 0.4945; Array Heatmap signal (histone peptide microarray) [18]: 0.5648; Array Heatmap signal (histone peptide microarray) [19]: 0.3353; Array Heatmap signal (histone peptide microarray) [20]: 0.2918; Array Heatmap signal (histone peptide microarray) [21]: 0.5688; Array Heatmap signal (histone peptide microarray) [22]: 0.6492; Array Heatmap signal (histone peptide microarray) [23]: 0.2771; Array Heatmap signal (histone peptide microarray) [24]: 0.8648; Array Heatmap signal (histone peptide microarray) [25]: 0.6284; Array Heatmap signal (histone peptide microarray) [26]: 0.5746; Array Heatmap signal (histone peptide microarray) [27]: 0.6468; Array Heatmap signal (histone peptide microarray) [28]: 0.5779; Array Heatmap signal (histone peptide microarray) [29]: 0.4998; Array Heatmap signal (histone peptide microarray) [30]: 0.505; Array Heatmap signal (histone peptide microarray) [31]: 0.6101

For H3K4ac + K18ac: H3 1-20, which “Array Heatmap signal (histone peptide microarray)” value (“Array Heatmap signal” for short) [1] is on record?
The value was 0.347.

And the “Array Heatmap signal” value [2]?
Its value is 0.5195.

And the “Array Heatmap signal” value [3]?
Its value is 0.4765.

What about the “Array Heatmap signal” value [4] of the same substance?
Its value is 0.455.

And the “Array Heatmap signal” value [5]?
The value was 0.5346.

And the “Array Heatmap signal” value [6]?
The value was 0.5001.

And the “Array Heatmap signal” value [7]?
The value was 0.4736.

And the “Array Heatmap signal” value [8]?
The value was 0.356.

What about the “Array Heatmap signal” value [9] of the same substance?
Its value is 0.4876.

What about the “Array Heatmap signal” value [10] of the same substance?
The value was 0.5109.

And the “Array Heatmap signal” value [11]?
The value was 0.6733.

What about the “Array Heatmap signal” value [12] of the same substance?
The value was 0.4179.

And the “Array Heatmap signal” value [13]?
The value was 0.551.

And the “Array Heatmap signal” value [14]?
Its value is 0.3724.

And the “Array Heatmap signal” value [15]?
The value was 0.4359.

What about the “Array Heatmap signal” value [16] of the same substance?
The value was 0.6503.

And the “Array Heatmap signal” value [17]?
Its value is 0.4624.

What about the “Array Heatmap signal” value [18] of the same substance?
The value was 0.5589.

What about the “Array Heatmap signal” value [19] of the same substance?
The value was 0.3275.

And the “Array Heatmap signal” value [20]?
The value was 0.2831.

What about the “Array Heatmap signal” value [21] of the same substance?
Its value is 0.5594.

What about the “Array Heatmap signal” value [22] of the same substance?
The value was 0.6289.

And the “Array Heatmap signal” value [23]?
The value was 0.291.

And the “Array Heatmap signal” value [24]?
Its value is 0.8291.

What about the “Array Heatmap signal” value [25] of the same substance?
Its value is 0.6219.

And the “Array Heatmap signal” value [26]?
The value was 0.5623.

What about the “Array Heatmap signal” value [27] of the same substance?
The value was 0.6662.

And the “Array Heatmap signal” value [28]?
The value was 0.5224.

And the “Array Heatmap signal” value [29]?
Its value is 0.4894.

And the “Array Heatmap signal” value [30]?
The value was 0.5036.

And the “Array Heatmap signal” value [31]?
The value was 0.6077.
